Source: the supplement of paper PMC10307832

Columns and labels:
Experiment in all cases: relative viability (nuclei count vs DMSO), 5 days (fraction); higher = more cells survive
[1] = compound: CC1=CC(=NN1)NC2=CC(=NC(=N2)/C=C/C3=CC=CC=C3)N4CCN(CC4)C + COc1cc2c(Oc3ccc(NC(=O)C4(C(=O)Nc5ccc(F)cc5)CC4)cc3F)ccnc2cc1OCCCN1CCOCC1 [Foretinib] (partner 0.25 µM)
Outline: (§1)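 Values are medians from duplicate plates. Each reflects relative viability, defined as the nuclei count of treated wells over that of vehicle wells. Lung cancer cell lines in 1536-well plates were pin-tool dosed one day after seeding with one drug alone or with a fixed anchor-drug dose plus five library-drug doses (not always all listed) in √10 steps, then fixed, stained and imaged at 4× after 5 days.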

[2] = compound: CC1=CC(=NN1)NC2=CC(=NC(=N2)/C=C/C3=CC=CC=C3)N4CCN(CC4)C + CC1(C)CCC(c2ccc(Cl)cc2)=C(CN2CCN(c3ccc(C(=O)NS(=O)(=O)c4ccc(N[C@H](CCN5CCOCC5)CSc5ccccc5)c(S(=O)(=O)C(F)(F)F)c4)cc3)CC2)C1 [Navitoclax] (partner 0.5 µM)
Outline: as §1

[3] = compound: CC1=CC(=NN1)NC2=CC(=NC(=N2)/C=C/C3=CC=CC=C3)N4CCN(CC4)C + O=C(CCCCCCC(=O)Nc1ccccc1)NO [Vorinostat] (partner 1 µM)
Outline: as §1

[4] = compound: CC1=CC(=NN1)NC2=CC(=NC(=N2)/C=C/C3=CC=CC=C3)N4CCN(CC4)C + Nc1nc2[nH]cc(CCc3ccc(C(=O)N[C@@H](CCC(=O)O)C(=O)O)cc3)c2c(=O)[nH]1 [Pemetrexed] (partner 0.2 µM)
Outline: as §1

Row | Cell Line | relative viability ([1]; first compound 0.08 µM) | relative viability ([1]; first compound 0.253 µM) | relative viability ([1]; first compound 0.8 µM) | relative viability ([1]; first compound 2.53 µM) | relative viability ([1]; first compound 8 µM) | relative viability ([2]; first compound 0.08 µM) | relative viability ([2]; first compound 0.253 µM) | relative viability ([2]; first compound 0.8 µM) | relative viability ([2]; first compound 2.53 µM) | relative viability ([2]; first compound 8 µM) | relative viability ([3]; first compound 0.08 µM) | relative viability ([3]; first compound 0.253 µM) | relative viability ([3]; first compound 0.8 µM) | relative viability ([3]; first compound 2.53 µM) | relative viability ([3]; first compound 8 µM) | relative viability ([4]; first compound 0.08 µM) | relative viability ([4]; first compound 0.253 µM) | relative viability ([4]; first compound 0.8 µM) | relative viability ([4]; first compound 2.53 µM) | relative viability ([4]; first compound 8 µM)
1 | NCI-H727 | 0.823 | 0.916 | 0.679 | 0.512 | 0.272 | 0.423 | 0.483 | 0.378 | 0.286 | 0.0872 | 0.86 | 0.882 | 1.32 | 1.02 | 0.523 |  |  |  |  | 
2 | NCI-H1944 | 0.916 | 0.949 | 0.853 | 0.535 | 0.216 | 1.04 | 1.08 | 1.03 | 0.866 | 0.266 | 0.581 | 0.565 | 0.394 | 0.286 | 0.16 | 0.566 | 0.652 | 0.611 | 0.365 | 0.312
3 | NCI-H1437 | 1.19 | 1.31 | 1.3 | 1.25 | 0.474 | 1.06 | 1.12 | 1.03 | 0.816 | 0.175 | 0.631 | 0.904 | 0.819 | 0.394 | 0.201 | 0.422 | 0.325 | 0.295 | 0.212 | 0.162
4 | NCI-H441 | 1.16 | 0.649 | 1.18 | 0.384 | 0.177 | 0.704 | 0.503 | 0.302 | 0.187 | 0.122 | 0.569 | 0.768 | 0.58 | 0.498 | 0.138 | 0.24 | 0.25 | 0.273 | 0.221 | 0.137
5 | EMC-BAC-2 | 0.957 | 1.04 | 0.936 | 0.534 | 0.234 | 1.1 | 1.11 | 1.07 | 0.719 | 0.266 | 0.416 | 0.428 | 0.354 | 0.171 | 0.0976 | 0.439 | 0.495 | 0.445 | 0.465 | 0.234
6 | NCI-H647 | 1.14 | 1.23 | 1.27 | 0.8 | 0.104 | 1.05 | 1.38 | 1.07 | 0.0912 | 0.0329 | 0.58 | 0.626 | 0.391 | 0.128 | 0.0534 | 0.2 | 0.174 | 0.168 | 0.0748 | 0.0585
7 | CAL-12T | 1.09 | 1.17 | 0.908 | 0.293 | 0.162 | 0.918 | 1.31 | 1.16 | 0.424 | 0.151 | 0.686 | 0.573 | 0.639 | 0.428 | 0.126 | 1.09 | 1.25 | 1.16 | 0.56 | 0.159
8 | NCI-H1792 |  |  |  |  |  | 0.558 | 0.599 | 0.611 | 0.437 | 0.102 |  |  |  |  |  | 0.624 | 0.888 | 0.722 | 0.0892 | 0.0324
9 | H3255 | 0.799 | 1.1 | 0.822 | 0.756 | 0.631 | 0.518 | 0.61 | 0.517 | 0.43 | 0.0832 | 0.746 | 0.834 | 0.872 | 0.831 | 0.525 | 0.526 | 0.589 | 0.573 | 0.555 | 0.391
10 | HCC-78 | 0.582 | 0.666 | 0.54 | 0.492 | 0.233 | 0.799 | 0.918 | 0.823 | 0.568 | 0.126 | 0.465 | 0.518 | 0.461 | 0.372 | 0.246 | 0.804 | 0.91 | 0.926 | 0.938 | 0.874
11 | EBC-1 | 0.107 | 0.115 | 0.103 | 0.106 | 0.0799 | 0.387 | 0.396 | 0.285 | 0.154 | 0.147 |  |  |  |  |  |  |  |  |  | 
12 | NCI-H2405 | 1.05 | 1.07 | 1.07 | 0.878 | 0.229 | 0.884 | 0.688 | 1.13 | 0.511 | 0.0864 | 1.05 | 1.1 | 1.02 | 0.406 | 0.142 | 1.02 | 0.979 | 1.04 | 0.503 | 0.162
13 | A549 | 1.03 | 0.914 | 0.616 | 0.0324 | 0.0167 | 1.1 | 1.19 | 0.985 | 0.0304 | 0.0283 |  |  |  |  |  |  |  |  |  | 
14 | NCI-H3122 | 0.957 | 0.928 | 0.965 | 0.873 | 0.383 | 1 | 0.996 | 0.991 | 0.918 | 0.896 | 1.03 | 0.977 | 0.989 | 0.879 | 0.511 | 0.2 | 0.203 | 0.206 | 0.186 | 0.147
15 | NCI-H1563 | 0.903 | 0.923 | 0.87 | 0.746 | 0.565 |  |  |  |  |  |  |  |  |  |  | 0.76 | 0.861 | 0.853 | 0.592 | 0.396
16 | HCC-44 |  |  |  |  |  | 0.967 | 1.01 | 0.965 | 0.912 | 0.436 | 1.08 | 1.13 | 1.05 | 0.904 | 0.36 | 0.642 | 0.644 | 0.631 | 0.622 | 0.557
17 | PC-3 [JPC-3] | 1.01 | 1.1 | 1.02 | 0.87 | 0.493 | 0.769 | 0.81 | 0.762 | 0.62 | 0.389 | 0.766 | 0.876 | 0.814 | 0.543 | 0.333 | 1.15 | 1.2 | 1.03 | 0.849 | 0.361
18 | NCI-H1993 | 0.754 | 0.911 | 0.763 | 0.594 | 0.447 | 0.94 |  | 0.78 | 0.576 | 0.489 | 0.737 | 0.734 | 1.03 | 0.238 | 0.275 | 0.58 | 0.65 | 0.592 | 0.516 | 0.351
